Data published in patent US7192607B2, “Formulations for the prevention or the treatment of diseases affecting mucosae or skin, or for pregnancy prevention, and an applicator for the delivery of topical formulations into mucosal cavities” (Infectio Recherche Inc, priority 2002, dated 2007).
pIC50: −log10 of the molar value.

Key:
[1] = system: HSV-1 (strain F); test: Murine cutaneous infection model, HSV-1 pretreated with SLS or DS; assay type: in vivo, hairless mice (SKH1)
Procedure: The effect of pretreating HSV-1 (strain F) with SLS on viral infectivity has also been evaluated in a murine cutaneous infection model. Female hairless mice (SKH1; Charles River Breeding Laboratories Inc., St-Constant, QC, Canada), 5–6 weeks old were used throughout this study. […] Mice were anesthetized by intraperitoneal injection of a mixture containing 70 mg/kg ketamine hydrochloride (Rogarsetic* injection USP; Rogar/STB Inc. Montreal, QC, Canada) and 11.5 mg/kg xylazine (Rompun®; Miles Canada Inc., Etobicoke, ON, Canada). The virus was inoculated on the lateral side of the body in the left lumbar skin area. The skin was scratched six times in a crossed-hatched pattern with a 27-gauge needle held vertically. Viral suspension (50 μl) was deposited onto the scarified area and rubbed for 10 to 15 see with a cotton tipped applicator saturated with EMEM+2% FBS or SLS or DS solutions. The scarified area was protected with a corn cushion which was maintained on the mice body with surgical tape. The porous inner wall of the aperture of the corn cushion was impermeabilized with tissue adhesive prior to use to prevent absorption of the drug. The aperture of the corn cushion was also closed with surgical tape. Mice were then returned to their cages and observed twice daily.
In infected untreated mice, no pathological signs of cutaneous infection were visible during the first four days following infection and only the scarified area remained appearent. On day 5, herpetic skin lesions began to appear in some mice in the form of small vesicles distant from the inoculation site. On day 6, almost all untreated mice developed herpetic skin lesions in the form of a 4–5 mm wide band extending from the spine to the ventral midline of the infected dermatome similar to zoster-like infections. Maximal mean lesion score was observed on day 8. Mean lesion score decreased thereafter from day 11 to day 15 because of spontaneous regression of cutaneous lesions in some mice. […] Of prime importance, all mice infected with the virus pretreated with 100 μM SLS survived the infection (data not shown).

[2] = system: HSV-1 (strain F); test: Infectivity of HSV-1 (strain F) to Vero cells after treatment with SLS or DS (plaque forming units); assay type: cell-based, Herpes simplex virus type-1; settings: independent of whether the virus was pretreated, FIG. 1, read-out: concentration giving a loss of 50% of the viral infectivity
Procedure: The effect of pretreating different strains of herpes viruses with SLS or DS on their viral infectivities to susceptible cells has been evaluated. In brief, cells were seeded in 24 well-plates (Costar, Montreal, QC, Canada). Prior to infection, the virus was either suspended in culture medium or phosphate buffered saline (PBS), or incubated with different concentrations of SLS in PBS for 1 h at 37° C. At confluency, cells were incubated with viral suspensions by centrifuging the plates (750× g for 45 min at 20° C.) to allow virus adsorption. Virus was removed and cell sheets were then overlaid with 0.5 ml of 0.6% agarose Seaplaque (Marine Colloids, Rockland, Md.) prepared in appropriate culture medium. The plates were incubated for 2 days at 37° C. Cells were then fixed with 10% formaldehyde in PBS for 20 min, washed with deionized water and stained with 0.05% methylene blue. Viral infectivity was evaluated via the determination of Plaque Forming Units (PFU).
HSV-1 (strain F) infectivity was reduced to 21% when viral particles were pretreated with 25 μM SLS. The infectivities of all HSV-2 strains were between 50 to 70% following preincubation with 25 μM SLS. A complete loss of the infectivity of all strains tested were obtained following pretreatment of the viruses with 50 μM SLS.
When SLS was immediately added to Vero cells following their infection, the loss of viral infectivity was less dramatic compared to that obtained for virus pretreated for 1 h at 37° C. with the same SLS concentrations. […] Similarly, pretreatment of the HSV-2 (strain 333) with SLS also influenced the infectivity of this strain (data not shown). On the other hand, DS reduces the infectivity of the virus independent of whether the virus was pretreated with DS.

[3] = system: HSV-1 (strain F); test: Efficacy of SLS or DS added in overlay after infection against HSV-1 (strain F) in Vero cells (PFU); assay type: cell-based, Herpes simplex virus type-1; settings: cells infected 2 h, compound in overlay for 2 days, FIG. 2
Procedure: In brief, cells were infected with the virus for 2 h at 37° C. Afterwards, supernatant was removed and cells were overlaid with 0.5 ml of EMEM +2% FBS containing 0.6% agarose Seaplaque and SLS or DS at the desired concentration. Plates were then incubated for 2 days at 37° C. in a 5% CO2 atmosphere. Cells were fixed with 10% formaldehyde in PBS for 20 min, washed with deionized water and stained with 0.05% methylene blue. Viral infectivity was evaluated following the determination of PFU.

[4] = system: Vero cells; test: Viability of Vero cells exposed to SLS or DS (MTS test); settings: Vero cells exposed 1 h at 37° C. to concentrations as in FIG. 1 and Table 1; data not shown
[5] = system: HSV-1 (strain F); test: Treatment of HSV-1 cutaneous lesions in mice with topical formulations; assay type: in vivo, hairless mice (SKH1); settings: treatment started 24 h after infection, 3 times daily for 4 days
Procedure: For the purpose of testing the efficacy of our gel formulations in a murine model of cutaneous HSV-1 infection, the solutions were prepared within a phosphate buffer (0.2 M, pH 6) to be compatible with the pH of the skin.
The efficacy of our different topical formulations has been evaluated in a murine model of cutaneous HSV-1 infection. In brief, female hairless mice (SKH1; Charles River Breeding Laboratories Inc., St-Constant, QC, Canada), 5–7 weeks old were anesthetized by intraperitoneal injection of a mixture containing 70 mg/kg ketamine hydrochloride and 11.5 mg/kg xylazine. The virus was inoculated on the lateral side of the body in the left lumbar skin area. The skin was scratched six times with a 27 gauge needle held vertically in a crossed-hatched pattern. Fifty μl of viral suspension (HSV-1 strain F, 1.5×10^6 plaque forming units (PFU)/ml) was rubbed for 10 to 15 sec on the scarified skin area with a cotton tipped applicator saturated with culture medium [minimum essential medium (MEM) supplemented with 100 U/ml of penicillin-streptomycin, 2 mM L-glutamine and 2% fetal bovine serum (MEM-E +2% FBS)]. The scarified area was protected with a corn cushion which was maintained on the mice body with surgical tape. […]
Different treatment regimens were evaluated in this study. […] The efficacy of the different formulations was evaluated using lesion scores and survival.

[6] = system: HSV-1 (strain F); test: In vitro susceptibility of HSV-1 to combination of foscarnet and SLS in Vero cells (PFU); assay type: cell-based, Herpes simplex virus type-1; settings: combinations of different concentrations in overlay, 2 days, FIG. 22
Procedure: The effect of SLS on the efficacy of foscamet against HSV-1 (strain F) was investigated in Vero cells. In brief, cells were seeded in 24 well-plates (Costar, Montreal, QC, Canada) and were incubated with HSV-1 strain F (approximately 100 PFU/ml) for 2 h at 37° C. to allow virus adsorption. Afterwards, virus was removed and cells overlaid with 0.5 ml of 0.6% agarose Seaplaque (Marine Colloids, Rockland, Mass.) containing different concentrations of foscarnet, SLS or combination of both compounds. The plates were incubated for 2 days at 37° C. Cells were then fixed with 10% formaldehyde in PBS for 20 min, washed with deionized water and stained with 0.05% methylene blue. Virus susceptibility was evaluated via the determination of PFU.

[7] = In vivo skin penetration of antivirals (distribution in skin tissues); design: species or system mice
[8] = Concentration of acyclovir in plasma after topical application; assay type: in vivo; settings: drug incorporated within the poloxamer matrix; infected vs uninfected mice; 24 h

## dextran sulfate [DS]
[1]; virus pretreated with 0.25 nM DS
  mean lesion score: partial reduction
[1]; virus pretreated with either 1 or 10 nM DS
  protection against the development of herpetic lesions: better protection
[2]
  pIC50: ~9.00
[3]
  concentration with complete efficacy against viral replication: 20 µM
[4]
  cytotoxicity (viability, MTS test): No signs of cytotoxicity

## O=C(O)P(=O)(O)O [foscarnet]
[5]; 0.5% foscarnet in solution
  mice that survived the infection: Half
[5]; solution of 0.5% foscarnet
  mean lesion score: large reduction
[6]
  efficacy of foscarnet against HSV-1 (strain F) in the presence of SLS: enhanced
[7]; infected mice, drug incorporated within the poloxamer vs phosphate buffer, 24 h
  concentration in the epidermis and dermis: significantly higher
[7]; uninfected mice, irrespective of the carrier, 24 h after topical application
  amounts found in the underlying epidermis and dermis: No or negligible amounts

## Nc1nc2c(ncn2COCCO)c(=O)[nH]1 [acyclovir]
[8]
  increase of concentration in plasma by infection: 4 fold
[7]; infected vs uninfected mice, 24 h
  effect of infection on amount in the epidermis: did not significantly increase
[7]; uninfected and infected mice, irrespective of the carrier, 24 h
  concentration in the epidermis and dermis compared with that of foscarnet: higher
